This passage reports IC50 results from ChEMBL document CHEMBL1136153, “2-oxoglutarate analogue inhibitors of HIF prolyl hydroxylase” (Bioorg Med Chem Lett, 2003).

The experiment is described as follows: Inhibitory concentration against oxoglutarate oxygenase was determined.

Molecules are shown by their SMILES.

With `O=C(O)CCC(S)C(=O)O` (stereo unspecified), the IC50 (usually the concentration needed to halve the response being measured) came to 120 µM.
